Test results as given in publication PMC5218480 (PLoS ONE, 2017).

Test system: MV-4-11 and HL-60 cells
Assay: Quantitative real time PCR (qPCR) of CDKN1A, CDKN1C, GATA2, HES1
Format: cell-based, human
Conditions: MV-4-11 and HL-60, 48 hours
Method: RNA isolations were performed on a Qiacube (Qiagen) using the RNeasy Micro Kit (Qiagen) according to manufacturer’s protocol. RNA was converted to cDNA using the High Capacity RNA-to-cDNA Kit (Life Technologies) and qPCR performed using the Taqman Gene Expression Max Mix according to manufacturer’s protocol (Applied Bioscience). The following ThermoFisher taqman probes were used: GATA2 (Hs01060665_g1), GAPDH (Hs0275899_g1), ACTB (Hs00231119_m1), CDKN1A (Hs00355782_m1), CDKN1C (Hs00175938_m1), HES1 (Hs00172878_m1).

| SMILES | expression of CDKN1A, CDKN1C, GATA2 and HES1 (qPCR) |
| --- | --- |
| Nc1ccc(-c2cccs2)cc1NC(=O)c1ccc2c(c1)cc(C1CC1)n2CCN1CCOCC1 [ACY-1035] | up-regulated |
| Nc1ncn([C@@H]2O[C@H](CO)[C@@H](O)[C@H]2O)c(=O)n1 [azacitidine] | up-regulated |
